Measured values: publication PMC5053523, “In Vitro Antibacterial Activity of Rhodanine Derivatives against Pathogenic Clinical Isolates” (PLoS ONE, 2016)
Converted amounts (≈) assume the structure as drawn.

System: Staphylococcus epidermidis
Assay: Broth microdilution MIC, Staphylococcus epidermidis
Format: cell-based

O=C(O)[C@H](Cc1ccccc1)N1C(=O)/C(=C/c2cccc(-c3ccc(Cl)c(Cl)c3)c2)SC1=S [Rh 2]
MIC: 4 µM (≈ 2.06 µg/mL)
